Values of other authors as cited in patent US9173403B2, “Parasiticidal compositions comprising multiple active agents, methods and uses thereof” (MERIAL, INC., priority 2010, dated 2015).

Conditions: beagle dogs; spot-on administration; 14C radiolabeled drug

**Q.** With `N#Cc1nn(-c2c(Cl)cc(C(F)(F)F)cc2Cl)c(N)c1[S+]([O-])C(F)(F)F` (stereo not shown) [fipronil, 5-amino-3-cyano-1-(2,6-dichloro-4-trifluoromethylphenyl)-4-trifluoromethylsulfinylpyrazole] as the compound, how does the “time persistently detected in the whole skin after treatment” value read?
**A.** Its value is “up to 56 days”.
